Two molecules from patent US12551469B2 (priority 2020, dated 2026) can be followed below.

Structures are written as SMILES.

In one series the test system is ARDS induced thrombosis. Nature of the series: Rat venous stasis (Wessler) model after LPS-induced lung injury (ARDS). The format is in vivo, Sprague-Dawley rats. From the text: This study assessed the efficacy of ABC294640 to reduce the incidence of adverse thromboembolic events in situ in acute respiratory distress syndrome (ARDS) conditions using a rat venous stasis model. This assay is designed to measure thrombotic risks following LPS-induced lung injury. LPS-induced lung injury is one of the most commonly used rodent models for ARDS and was described to mimic the neutrophilic inflammatory response observed in ARDS patients. The mechanism of LPS-induced ARDS is based on damage to endothelial cells and a systemic inflammatory response.
The venous stasis (Wessler) test in animals has been used extensively for over 40 years as a laboratory measure for in vivo hypercoagulability.
Test compound was administered by oral gavage 3 hours post-instillation and 24, 48 and 72 hours post-instillation, at a dose of 250 mg/kg. The appropriate amount of LPS from E. coli (O55:B5) was diluted in saline to obtain a final concentration of 400 μg/mL. This solution was given by intratracheal instillation (0.5 mL/kg). The vehicle was composed of PBS pH 7.4±0.1. ABC294640 was weighed and transferred in vehicle (PBS, 0.375%, pH 7.4) to obtain a final solution at 25 mg/mL. ABC294640 solution is stirred for 10 minutes at room temperature prior to dosing. This solution was given by oral gavage (250 mg/kg, 10 mL/kg).
Sprague-Dawley rats (male) weighing between 275 and 400 g were used for this study. Animals were randomly assigned to a treatment group by the Study Director. Food and water were given ad libitum. Observation for behavior and general health status were done until the sacrifice. The body weight was recorded before the instillation and 24, 48 and 72 hours post-instillation.
In this study, ARDS was induced by intratracheal instillation of LPS. Throughout the ARDS induction and development process, animal was dosed by oral gavage with vehicle or ABC294640 (3 h, 24 h, 48 and 72 hours post-instillation). […] The stasis was maintained for 30 minutes. The segment was then excised and its content scored. Subsequently, animal was euthanized by exsanguination.
• 1. Prior LPS or saline instillation, the functional respiratory parameters of all rat was assessed by whole-body plethysmography and SpO2 was evaluated on conscious rat with a collar probe pulse oximeter. Rat was first acclimatized to the plethysmograph chamber prior to the physiological assessment. The respiratory rate, the Penh and the inspiratory/expiratory time measurements was analyzed. • 2. […]
• 5. Rats were evaluated periodically to ensure animal well-being (general behavior and daily body weight). • 6. […] SpO2 and whole-body plethysmography were also evaluated 24, 48 and 72 hours post-instillation. • 8. […] The thrombi was measured, weighed and scored on a scale from 0 to 4 (see Table 2).

The next series concerns COVID-19 infection. Nature of the series: Pilot / compassionate use study of opaganib in hospitalized patients with COVID-19 pneumonia. The format is in vivo, human. The method, then:
Patients entered a screening period of up to 1 week. Eligible patients entered the treatment period for up to 2 weeks. All participants were followed for 2 weeks after their last dose of study drug, at the end of the 2 week treatment period, or once they had 2 consecutive daily negative viral swabs for the COVID-19 virus or at after premature drug discontinuation prior to Day 14. The maximum duration of study participation was 35 days […].
Each dose is administered with food or 15-30 minutes after tube-feeding, where appropriate. […] These patients had moderate to severe COVID-19-related pneumonia with hypoxia on supplemental oxygen.
Five patients were included in the analysis, and for comparison purposes, we used a control group with same-sex, same-severity patients (baseline characteristics). Univariate comparisons between the groups were performed with chi-square test for categorical variables and t-test or MannWhitney U-test for continuous variables, as appropriate. Time variables were compared with Cox proportional hazard regression, adjusted for age and background illnesses. CRP and lymphocyte changes were compared utilizing a repeated measures general linear model with a Bonferroni correction for multiple comparison.

For series [1], the system named is human bronchial epithelial cells (HBEC). Conditions: male.
The subject of a further series is COVID-19 pneumonia. Nature of the series: Randomized, double-blind, placebo-controlled Phase 2a study of opaganib in COVID-19 pneumonia. The format is in vivo, human. The text has this:
This was a phase 2a, proof of concept, multi-center randomized double-blind, parallel arm, placebo-controlled study. After informed consent was obtained, patients entered a screening phase for no more than 3 days, to determine eligibility. […] Treatment assignments remained blinded to the patient, investigator and hospital staff, as well as the sponsor. As there was no consensus for a definitive treatment specifically targeting the SARS-CoV-2 virus causing COVID-19 (Wilson, 2020), standard of care referred to regional, institutional or physician directed therapies, that were implemented during the COVID-19 pandemic.
Study drug was to be administered every day for 14 days (Day 1 to Day 14), unless the patient had been discharged from the hospital without requiring supplemental oxygen, in which case study drug would only be administered to Day 10.
Two patients were randomized in each group but not treated. […] Two patients in the opaganib arm experienced adverse events such that study drug was terminated, while one placebo patient was terminated due to an adverse event.
The primary efficacy endpoint calculated for each patient the area under the curve of the supplemental oxygen requirement through day 14, using the trapezoidal rule after subtracting the baseline oxygen requirement at each day. Days where no supplementary oxygen was needed, were recorded as 0. If several values of oxygen requirement (L/min) are recorded in a certain day, for the primary analysis the highest of these values were taken. In the primary analysis, for patients who die before Day 14, or require intubation and mechanical ventilation, missing daily values were assigned the maximal supplemental oxygen flow requirement of 8 L/min. […]
Supplemental oxygen requirement up to Day 14 was collected even if a patient discontinued treatment prior to Day 14 but continued in the study to Day 14. […] A sensitivity analysis to the above missing data handling approach was performed using an AUC summary statistics approach, in which groups AUC is calculated from the estimated parameters of a Repeated-Measures model. […]

In series [2] the test system is SARS-CoV-2 clinical isolate (2019-nCoV/USA-WA1/2020). Nature of the series: Anti-viral activity against SARS-CoV-2 in HBEC (EpiAirway) ALI cultures, apical viral titer by TCID50 assay. The format is cell-based.

As for `O=C(NCc1ccncc1)C12CC3CC(C1)CC(c1ccc(Cl)cc1)(C3)C2` [ABC294640, 3-(4-chlorophenyl)-adamantane-1-carboxylic acid (pyridin-4-ylmethyl)amide], in the series with ARDS induced thrombosis (250 mg/kg oral gavage), the blood clot length entry is on record as “reduction” and the blood clot weight entry is “reduction”. Moreover, the thrombosis result in the series with ARDS induced thrombosis (250 mg/kg oral gavage 3, 24, 48, 72 h post LPS instillation, 30 min stasis) is recorded as “reduction of thrombosis”. In addition, the total thrombus score entry in the series on ARDS induced thrombosis (250 mg/kg oral gavage, score 0 to 4) is given as “reduction”.

Turning to `Cl.O=C(NCc1ccncc1)C12CC3CC(C1)CC(c1ccc(Cl)cc1)(C3)C2` [opaganib, 3-(4-chlorophenyl)-adamantane-1-carboxylic acid (pyridin-4-ylmethyl) amide, hydrochloride salt], the “Clinical Assessment” value is 3 Apr. 2020; RA by 16 April with COVID-19 infection (Patient 1 (14 d), started as severe on maximal OptiFlow 3 Apr. 2020, one negative viral swab as of 22 April); 7 Apr. 2020; RA by 20 in the series on COVID-19 infection (Patient 2 (14 d), started as severe+, planning for intubation 7 Apr. 2020, RA by 20 Apr. 2020, D/C on 22 Apr. 2020); 13 Apr. 2020; RA by in the series on COVID-19 infection (Patient 3 (7 d), moderate-severe, on OptiFlow 13 Apr. 2020, RA by 17 Apr. 2020, D/C on 19 Apr. 2020); “RA on 22 Apr. 2020” in the series on COVID-19 infection (Patient 4 (11 d), started severe+ 70% OptiFlow on 13 Apr. 2020); “Dramatic improvement” in the series on COVID-19 infection (Patient 5 (2 d), started moderate on 13 Apr. 2020, nasal cannula, after one day on opaganib, D/C on 14 Apr. 2020 on RA). Further, the “C-Reactive Protein (CRP) change” value in the series with COVID-19 infection (all six patients) is recorded as “reduction in C-Reactive Protein (CRP)”. Further, in the series with COVID-19 infection (all six patients), the “clinical improvement, including reduced supplemental oxygenation and higher lymphocyte counts” value is on record as “measurable clinical improvement”. Further, the “cases requiring mechanical ventilation” value with COVID-19 infection (compared with 33% of controls) is reported as “none of the cases required mechanical ventilation”. In the series with COVID-19 infection (five patients vs same-sex, same-severity control group), the “lymphocyte count increase vs. matched controls” value was “significantly faster increase in lymphocyte count”. Besides, the “patients back to breathing room air” value in the series on COVID-19 infection (of 6 treated patients) was 5 patients. Besides, in the series with COVID-19 infection (of 6 treated patients), the “patients discharged from hospital” value worked out at 3 patients. Also, the “moderate to-severe patients improved significantly” value with COVID-19 infection (of seven compassionate use patients, patient #7 had only 1 day of treatment) is given as 6 patients. Further, the “50% cytotoxicity reached in concentration range tested” value in series [1] is recorded as “neither 50% inhibition nor 50% cytotoxicity were reached”. Further, the “patients with adverse events such that study drug was terminated” value with COVID-19 pneumonia (opaganib arm, one placebo patient) was “Two”. In addition, the “patients with serious adverse events (SAEs) vs. placebo arm” value with COVID-19 pneumonia (top-line results) is given as “fewer patients suffered from serious adverse events (SAEs)”. In addition, in the series with COVID-19 pneumonia (top-line results), the “safety vs. placebo arm” value is “safe, with no material safety differences”. Also, in series [2] (0.05 to 11.25 μg/ml), the “50% inhibition reached in concentration range tested” value was “neither 50% inhibition nor 50% cytotoxicity were reached”. The “concentration at which complete inhibition of infectious virus production starts” value in series [2] (3 days incubation) came out at 1 µg/mL. The infectious virus production result in series [2] (opaganib 0.05 to 11.25 μg/ml, 3 days incubation) is given as “dose-dependent reduction in infectious virus production”.
